Test: Suppression of recrystallization of actives that are solid at room temperature
Format: physicochemical
Conditions: glycol ether solvent with Transfluthrin (TFT)

effect on recrystallization of actives solid at room temperature: suppress the recrystallization
Structure (SMILES): COCC(C)OCC(C)OC (stereo not shown) [DMM, Dipropylene glycol Dimethyl Ether]

Reference: patent US20260137079A1, “DISPENSER AND METHOD OF USE THEREOF” (priority 2019, published 2026)
